Assay results reported in publication doi:10.1101/2024.08.13.607785v1 (biorxiv, 2024).
Read-outs that look alike come from different tables or passages of the source. One block for each compound: values may come before it.

How the values were obtained:
Assay in all cases: biochemical
Set-up in all cases: species or system human cell line lysate
[1] = target: Isoform IB of Tyrosine-protein kinase ABL1 ; ABL1 ; P00519-2 (Homo sapiens, UniProt P00519)
[2] = target: T1, Ephrin type-B receptor 2 ; EPHB2 ; P29323 (Homo sapiens, UniProt P29323)
T1 sequence (P29323 1-1055): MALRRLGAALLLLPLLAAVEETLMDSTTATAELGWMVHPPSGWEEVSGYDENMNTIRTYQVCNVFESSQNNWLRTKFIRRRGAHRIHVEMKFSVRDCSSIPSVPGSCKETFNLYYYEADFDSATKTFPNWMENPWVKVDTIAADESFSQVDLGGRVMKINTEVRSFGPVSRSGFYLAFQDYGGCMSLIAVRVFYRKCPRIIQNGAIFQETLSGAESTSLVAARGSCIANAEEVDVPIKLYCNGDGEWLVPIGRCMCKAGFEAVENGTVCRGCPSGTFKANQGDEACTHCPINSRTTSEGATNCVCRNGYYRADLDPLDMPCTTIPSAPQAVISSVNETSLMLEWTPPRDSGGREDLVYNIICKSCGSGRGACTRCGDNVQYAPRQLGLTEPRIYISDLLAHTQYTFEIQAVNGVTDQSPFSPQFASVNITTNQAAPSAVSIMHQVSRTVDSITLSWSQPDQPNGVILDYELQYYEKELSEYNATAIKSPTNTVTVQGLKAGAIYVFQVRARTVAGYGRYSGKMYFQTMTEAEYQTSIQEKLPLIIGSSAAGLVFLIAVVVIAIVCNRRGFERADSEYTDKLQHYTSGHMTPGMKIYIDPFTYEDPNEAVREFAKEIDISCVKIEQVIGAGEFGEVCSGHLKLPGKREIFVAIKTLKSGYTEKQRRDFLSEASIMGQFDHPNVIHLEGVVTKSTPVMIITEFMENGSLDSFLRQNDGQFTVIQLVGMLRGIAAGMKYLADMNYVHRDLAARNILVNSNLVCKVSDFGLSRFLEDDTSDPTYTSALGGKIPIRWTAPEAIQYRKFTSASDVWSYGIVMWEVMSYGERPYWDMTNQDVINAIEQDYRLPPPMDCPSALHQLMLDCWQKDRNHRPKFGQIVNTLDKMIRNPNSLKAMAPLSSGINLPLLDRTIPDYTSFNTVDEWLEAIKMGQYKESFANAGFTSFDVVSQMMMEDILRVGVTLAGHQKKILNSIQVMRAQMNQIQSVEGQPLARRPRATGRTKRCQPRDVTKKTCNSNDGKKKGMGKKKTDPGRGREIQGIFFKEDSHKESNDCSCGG

[3] = target: Serine/threonine-protein kinase PAK 4 ; PAK4 ; O96013 (Homo sapiens, UniProt O96013)
[4] = target: Serine/threonine-protein kinase Nek9 ; NEK9 ; Q8TD19 (Homo sapiens, UniProt Q8TD19)
[5] = target: Atypical kinase COQ8A, mitochondrial ; COQ8A ; Q8NI60 (Homo sapiens, UniProt Q8NI60)
Chain of Atypical kinase COQ8A, mitochondrial ; COQ8A ; Q8NI60 (Q8NI60 whole entry, canonical isoform): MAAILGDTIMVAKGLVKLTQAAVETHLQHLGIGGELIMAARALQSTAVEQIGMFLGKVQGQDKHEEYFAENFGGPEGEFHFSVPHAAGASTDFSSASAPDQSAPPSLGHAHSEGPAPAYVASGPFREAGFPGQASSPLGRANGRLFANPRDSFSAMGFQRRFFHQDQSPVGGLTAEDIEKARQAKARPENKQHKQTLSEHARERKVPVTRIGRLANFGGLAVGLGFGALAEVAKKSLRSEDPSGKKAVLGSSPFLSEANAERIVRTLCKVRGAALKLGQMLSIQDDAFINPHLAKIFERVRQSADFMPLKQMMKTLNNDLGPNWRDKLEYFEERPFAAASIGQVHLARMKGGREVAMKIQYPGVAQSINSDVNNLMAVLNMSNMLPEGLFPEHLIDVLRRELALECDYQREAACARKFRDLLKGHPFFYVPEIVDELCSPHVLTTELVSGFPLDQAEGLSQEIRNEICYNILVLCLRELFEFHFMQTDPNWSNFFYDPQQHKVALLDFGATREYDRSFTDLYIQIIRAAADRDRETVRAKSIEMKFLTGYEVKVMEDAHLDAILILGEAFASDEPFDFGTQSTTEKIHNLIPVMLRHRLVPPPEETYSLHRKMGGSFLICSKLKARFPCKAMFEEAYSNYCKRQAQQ

[6] = target: Isoform 3 of Casein kinase I isoform alpha ; CSNK1A1 ; P48729-3 (Homo sapiens, UniProt P48729)
Chain of Isoform 3 of Casein kinase I isoform alpha ; CSNK1A1 ; P48729-3 (P48729 whole entry, canonical isoform): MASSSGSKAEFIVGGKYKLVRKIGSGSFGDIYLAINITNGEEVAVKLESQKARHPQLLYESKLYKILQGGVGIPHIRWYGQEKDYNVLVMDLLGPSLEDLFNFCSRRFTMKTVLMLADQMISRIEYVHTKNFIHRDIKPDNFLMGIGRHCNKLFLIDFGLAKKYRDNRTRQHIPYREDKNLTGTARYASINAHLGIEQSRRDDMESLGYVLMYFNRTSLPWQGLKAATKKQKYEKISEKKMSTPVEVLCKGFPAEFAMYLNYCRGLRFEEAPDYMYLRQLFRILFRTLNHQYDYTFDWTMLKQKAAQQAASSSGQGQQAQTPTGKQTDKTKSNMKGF

[7] = target: Ribosomal protein S6 kinase alpha-5 ; RPS6KA5 ; O75582 (Homo sapiens, UniProt O75582)
Chain of Ribosomal protein S6 kinase alpha-5 ; RPS6KA5 ; O75582 (O75582 whole entry): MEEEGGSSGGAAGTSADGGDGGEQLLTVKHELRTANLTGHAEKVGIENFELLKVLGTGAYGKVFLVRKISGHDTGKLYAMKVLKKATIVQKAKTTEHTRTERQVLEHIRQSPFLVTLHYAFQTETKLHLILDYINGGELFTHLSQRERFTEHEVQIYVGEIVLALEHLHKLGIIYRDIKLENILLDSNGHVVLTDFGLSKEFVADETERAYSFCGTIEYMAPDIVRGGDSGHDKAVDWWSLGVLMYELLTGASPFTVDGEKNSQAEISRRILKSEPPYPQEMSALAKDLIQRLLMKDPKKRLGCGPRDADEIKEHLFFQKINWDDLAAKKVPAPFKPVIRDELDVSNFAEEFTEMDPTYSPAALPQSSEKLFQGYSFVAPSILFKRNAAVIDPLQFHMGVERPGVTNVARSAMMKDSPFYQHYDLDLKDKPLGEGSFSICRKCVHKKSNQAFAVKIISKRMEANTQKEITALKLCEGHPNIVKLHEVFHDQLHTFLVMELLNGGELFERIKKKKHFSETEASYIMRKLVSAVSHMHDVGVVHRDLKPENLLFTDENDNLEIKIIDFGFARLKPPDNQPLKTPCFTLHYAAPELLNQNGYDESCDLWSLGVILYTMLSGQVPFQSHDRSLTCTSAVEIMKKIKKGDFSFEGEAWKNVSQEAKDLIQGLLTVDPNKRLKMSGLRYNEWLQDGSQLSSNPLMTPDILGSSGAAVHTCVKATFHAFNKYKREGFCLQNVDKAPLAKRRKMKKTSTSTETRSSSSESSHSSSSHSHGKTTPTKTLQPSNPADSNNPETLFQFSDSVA

[8] = target: Serine/threonine-protein kinase RIO2 ; RIOK2 ; Q9BVS4 (Homo sapiens, UniProt Q9BVS4)
Chain of Serine/threonine-protein kinase RIO2 ; RIOK2 ; Q9BVS4 (Q9BVS4 whole entry, one chain of several): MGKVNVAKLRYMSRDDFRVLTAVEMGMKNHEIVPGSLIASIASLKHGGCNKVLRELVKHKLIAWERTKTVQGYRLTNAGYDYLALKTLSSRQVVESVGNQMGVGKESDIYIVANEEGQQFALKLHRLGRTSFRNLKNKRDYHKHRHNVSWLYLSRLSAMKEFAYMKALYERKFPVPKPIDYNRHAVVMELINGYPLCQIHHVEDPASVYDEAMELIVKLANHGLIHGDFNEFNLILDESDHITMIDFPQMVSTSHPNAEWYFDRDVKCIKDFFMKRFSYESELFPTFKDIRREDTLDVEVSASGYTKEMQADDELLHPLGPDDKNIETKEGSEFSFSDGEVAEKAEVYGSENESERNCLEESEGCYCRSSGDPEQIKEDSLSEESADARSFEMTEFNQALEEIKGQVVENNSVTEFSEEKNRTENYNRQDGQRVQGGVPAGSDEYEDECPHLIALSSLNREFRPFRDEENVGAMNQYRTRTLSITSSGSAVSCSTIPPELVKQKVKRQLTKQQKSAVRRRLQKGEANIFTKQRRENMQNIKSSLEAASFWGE

[9] = target: Mitogen-activated protein kinase 11 ; MAPK11 ; Q15759 (Homo sapiens, UniProt Q15759)
Chain of Mitogen-activated protein kinase 11 ; MAPK11 ; Q15759 (Q15759 whole entry): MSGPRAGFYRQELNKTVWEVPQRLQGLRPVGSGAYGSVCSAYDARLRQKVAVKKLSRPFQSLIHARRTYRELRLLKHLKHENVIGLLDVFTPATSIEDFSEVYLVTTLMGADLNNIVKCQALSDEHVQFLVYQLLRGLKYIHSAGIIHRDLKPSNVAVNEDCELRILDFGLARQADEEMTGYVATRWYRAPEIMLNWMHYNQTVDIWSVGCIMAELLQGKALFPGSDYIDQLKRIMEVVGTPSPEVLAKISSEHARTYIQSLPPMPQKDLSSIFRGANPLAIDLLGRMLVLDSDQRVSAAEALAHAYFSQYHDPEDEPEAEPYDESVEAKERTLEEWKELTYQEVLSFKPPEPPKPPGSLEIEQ

[10] = target: RAC-gamma serine/threonine-protein kinase ; AKT3 ; Q9Y243 (Homo sapiens, UniProt Q9Y243)
[11] = target: Isoform 3 of Mitogen-activated protein kinase 8 ; MAPK8 ; P45983-3 (Homo sapiens, UniProt P45983)
Chain of Isoform 3 of Mitogen-activated protein kinase 8 ; MAPK8 ; P45983-3 (P45983 whole entry, canonical isoform): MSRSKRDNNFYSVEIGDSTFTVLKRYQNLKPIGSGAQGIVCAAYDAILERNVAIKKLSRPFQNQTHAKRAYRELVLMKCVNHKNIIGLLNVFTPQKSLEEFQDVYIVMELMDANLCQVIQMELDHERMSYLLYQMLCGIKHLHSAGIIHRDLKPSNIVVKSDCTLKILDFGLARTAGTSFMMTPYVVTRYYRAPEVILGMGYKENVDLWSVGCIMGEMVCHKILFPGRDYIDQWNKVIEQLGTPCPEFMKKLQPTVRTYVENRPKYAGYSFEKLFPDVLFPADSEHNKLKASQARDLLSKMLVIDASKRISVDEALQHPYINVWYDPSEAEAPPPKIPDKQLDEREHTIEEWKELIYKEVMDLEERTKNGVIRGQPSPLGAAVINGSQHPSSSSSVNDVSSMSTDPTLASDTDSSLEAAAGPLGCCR

[12] = target: Isoform 1A of Mitogen-activated protein kinase kinase kinase 7 ; MAP3K7 ; O43318-2 (Homo sapiens, UniProt O43318)
Chain of Isoform 1A of Mitogen-activated protein kinase kinase kinase 7 ; MAP3K7 ; O43318-2 (O43318 whole entry, canonical isoform): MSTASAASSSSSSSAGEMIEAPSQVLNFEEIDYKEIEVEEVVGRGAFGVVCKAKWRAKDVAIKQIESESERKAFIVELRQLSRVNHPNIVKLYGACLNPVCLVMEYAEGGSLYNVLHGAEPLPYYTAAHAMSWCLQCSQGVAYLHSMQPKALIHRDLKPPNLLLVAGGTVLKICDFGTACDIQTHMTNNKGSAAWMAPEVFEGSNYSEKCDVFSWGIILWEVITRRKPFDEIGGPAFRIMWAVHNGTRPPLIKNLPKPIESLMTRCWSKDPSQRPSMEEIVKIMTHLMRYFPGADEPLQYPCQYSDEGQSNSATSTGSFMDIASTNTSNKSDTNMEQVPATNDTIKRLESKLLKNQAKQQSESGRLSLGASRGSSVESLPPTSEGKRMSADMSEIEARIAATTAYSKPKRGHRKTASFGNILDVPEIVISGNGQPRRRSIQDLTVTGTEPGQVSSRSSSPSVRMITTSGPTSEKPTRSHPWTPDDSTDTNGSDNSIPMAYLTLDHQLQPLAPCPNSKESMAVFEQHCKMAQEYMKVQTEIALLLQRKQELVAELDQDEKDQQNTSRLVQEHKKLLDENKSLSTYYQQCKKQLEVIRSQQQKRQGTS

[13] = target: Phosphatidylinositol 4,5-bisphosphate 3-kinase catalytic subunit beta ; PIK3CB ; P42338 (Homo sapiens, UniProt P42338)
Chain of Phosphatidylinositol 4,5-bisphosphate 3-kinase catalytic subunit beta ; PIK3CB ; P42338 (P42338 whole entry, one chain of several): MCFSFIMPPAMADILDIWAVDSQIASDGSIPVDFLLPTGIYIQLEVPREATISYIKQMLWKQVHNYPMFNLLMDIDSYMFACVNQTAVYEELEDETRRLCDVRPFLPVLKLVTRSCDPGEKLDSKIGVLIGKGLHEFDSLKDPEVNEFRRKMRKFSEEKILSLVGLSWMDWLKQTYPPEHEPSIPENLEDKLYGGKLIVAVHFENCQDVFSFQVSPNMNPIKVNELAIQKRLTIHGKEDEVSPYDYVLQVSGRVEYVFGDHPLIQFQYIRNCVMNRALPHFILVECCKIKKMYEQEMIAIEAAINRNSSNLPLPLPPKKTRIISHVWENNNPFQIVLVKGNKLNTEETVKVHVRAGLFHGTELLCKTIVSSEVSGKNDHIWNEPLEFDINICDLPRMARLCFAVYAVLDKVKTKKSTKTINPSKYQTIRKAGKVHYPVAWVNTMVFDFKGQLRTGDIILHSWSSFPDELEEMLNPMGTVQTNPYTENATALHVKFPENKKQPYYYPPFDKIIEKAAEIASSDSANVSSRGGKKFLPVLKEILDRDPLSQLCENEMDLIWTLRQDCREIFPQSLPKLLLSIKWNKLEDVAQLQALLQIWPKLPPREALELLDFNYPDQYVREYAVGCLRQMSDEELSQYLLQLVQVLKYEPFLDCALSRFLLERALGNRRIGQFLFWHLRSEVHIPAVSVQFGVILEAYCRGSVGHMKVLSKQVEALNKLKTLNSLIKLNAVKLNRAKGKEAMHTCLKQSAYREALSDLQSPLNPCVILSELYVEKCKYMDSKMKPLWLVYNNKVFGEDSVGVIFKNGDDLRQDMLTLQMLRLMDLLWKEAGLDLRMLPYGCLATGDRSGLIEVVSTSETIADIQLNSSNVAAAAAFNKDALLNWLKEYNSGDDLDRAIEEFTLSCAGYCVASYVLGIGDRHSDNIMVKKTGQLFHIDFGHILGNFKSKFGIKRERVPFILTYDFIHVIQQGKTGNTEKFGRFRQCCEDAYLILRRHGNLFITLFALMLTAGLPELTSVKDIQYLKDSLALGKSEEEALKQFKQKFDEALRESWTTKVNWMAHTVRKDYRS

[14] = target: cAMP-dependent protein kinase catalytic subunit alpha ; PRKACA ; P17612 (Homo sapiens, UniProt P17612)
[15] = target: Calcium/calmodulin-dependent protein kinase type II subunit beta ; CAMK2B ; Q13554 (Homo sapiens, UniProt Q13554)
[16] = read-out: BAY-1251152 (10 µM) / %Intensity relative to DMSO
[17] = read-out: BAY-1143572 (10 µM) / %Intensity relative to DMSO

remaining activity at 10 µM [1, 16]: 83.2%
remaining activity at 10 µM [2, 16]: 105%
remaining activity at 10 µM [3, 16]: 110%
remaining activity at 10 µM [5, 16]: 113%
remaining activity at 10 µM [6, 16]: 111%
remaining activity at 10 µM [7, 16]: 110%
remaining activity at 10 µM [8, 16]: 111%
remaining activity at 10 µM [9, 16]: 107%
remaining activity at 10 µM [10, 16]: 127%
remaining activity at 10 µM [11, 16]: 128%
remaining activity at 10 µM [12, 16]: 113%
remaining activity at 10 µM [13, 16]: 57.7%
remaining activity at 10 µM [14, 16]: 101%
remaining activity at 10 µM [15, 16]: 98.2%
Compound: COc1cc(F)ccc1-c1cc(Nc2cc(CS(C)(=N)=O)ccn2)ncc1F (stereo not drawn) [BAY-1251152]
remaining activity at 10 µM [4, 16]: 110%

remaining activity at 10 µM [1, 17]: 67.4%
remaining activity at 10 µM [2, 17]: 84.3%
remaining activity at 10 µM [3, 17]: 105%
remaining activity at 10 µM [5, 17]: 106%
remaining activity at 10 µM [6, 17]: 115%
remaining activity at 10 µM [7, 17]: 109%
remaining activity at 10 µM [8, 17]: 123%
remaining activity at 10 µM [9, 17]: 116%
remaining activity at 10 µM [10, 17]: 125%
remaining activity at 10 µM [11, 17]: 141%
remaining activity at 10 µM [12, 17]: 116%
remaining activity at 10 µM [13, 17]: 83.7%
remaining activity at 10 µM [14, 17]: 115%
remaining activity at 10 µM [15, 17]: 105%
Compound: COc1cc(F)ccc1-c1ncnc(Nc2cccc(C[S@](C)(=N)=O)c2)n1 [BAY-1143572]
remaining activity at 10 µM [4, 17]: 110%
